Columns and labels:
Format in all cases: cell-based
[1] = molecular target: EP2 subtype of the human PGE2 receptor (Homo sapiens, UniProt P43116); assay: cAMP antagonism test on the human EP2 receptor (HTRF cAMP detection); settings: hEP2 receptor, read-out: Antagonism hEP2 IC50
Method in brief: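 Cells expressing human EP2 preincubated 20 min at RT with compound (0.8 nM–16.5 μM), then stimulated 60 min with PGE2 (3× solution 1.5 nM) in PBS-IBMX. After 20 min lysis, cAMP measured by competitive HTRF with cAMP-d2 and Eu cryptate anti-cAMP antibody (665/620 nm ratio).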

[2] = molecular target: T1, human PGD receptor (Homo sapiens, UniProt Q13258); assay: cAMP antagonism test on the human prostaglandin D receptor (HTRF cAMP detection); settings: selectivity towards hDP, IC50 measured by cAMP antagonism test
T1 sequence (Q13258 1-359): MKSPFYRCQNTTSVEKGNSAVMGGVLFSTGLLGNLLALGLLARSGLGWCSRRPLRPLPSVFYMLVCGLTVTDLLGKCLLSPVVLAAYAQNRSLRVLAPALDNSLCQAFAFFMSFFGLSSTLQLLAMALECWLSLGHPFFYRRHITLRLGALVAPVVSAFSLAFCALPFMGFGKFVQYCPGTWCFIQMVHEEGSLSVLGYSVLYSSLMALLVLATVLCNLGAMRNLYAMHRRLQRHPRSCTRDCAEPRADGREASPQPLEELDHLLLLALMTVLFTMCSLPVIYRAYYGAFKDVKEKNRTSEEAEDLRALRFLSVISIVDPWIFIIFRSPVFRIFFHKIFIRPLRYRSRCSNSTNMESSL
Method in brief: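 Cells pre-mixed with cAMP-d2 were preincubated with compound (0.8 nM–16.5 μM) for 20 min at RT, then stimulated with 3× PGD2 solution (6 nM, in PBS-IBMX) for 30 min at RT. After lysis (20 min), HTRF read at 665/620 nm; antagonism seen as rise in FRET ratio.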

[3] = molecular target: EP4 subtype of the human PGE2 receptor (Homo sapiens, UniProt P35408); assay: cAMP antagonism test on the human EP4 receptor (HTRF cAMP detection); settings: selectivity towards hEP4, IC50 measured by cAMP antagonism test
Method in brief: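 Cells expressing human EP4 preincubated 20 min at RT with compound (0.8 nM–16.5 μM), then stimulated with PGE2 (0.3 nM in 3× solution, with IBMX) 60 min at RT. After lysis, cAMP measured by HTRF competition (665/620 nm ratio); antagonism seen as rise in FRET signal.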

Sequence of EP2 subtype of the human PGE2 receptor (P43116 whole entry): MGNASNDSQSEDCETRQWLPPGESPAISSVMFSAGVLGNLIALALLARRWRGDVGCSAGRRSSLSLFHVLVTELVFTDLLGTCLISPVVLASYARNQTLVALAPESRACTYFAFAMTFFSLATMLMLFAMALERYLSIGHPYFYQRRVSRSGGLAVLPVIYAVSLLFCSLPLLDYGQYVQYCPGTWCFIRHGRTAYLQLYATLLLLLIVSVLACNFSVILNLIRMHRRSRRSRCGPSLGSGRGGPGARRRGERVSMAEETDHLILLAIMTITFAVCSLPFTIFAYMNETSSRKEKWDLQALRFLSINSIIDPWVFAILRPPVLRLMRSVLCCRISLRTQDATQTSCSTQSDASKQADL
Sequence of EP4 subtype of the human PGE2 receptor (P35408 whole entry): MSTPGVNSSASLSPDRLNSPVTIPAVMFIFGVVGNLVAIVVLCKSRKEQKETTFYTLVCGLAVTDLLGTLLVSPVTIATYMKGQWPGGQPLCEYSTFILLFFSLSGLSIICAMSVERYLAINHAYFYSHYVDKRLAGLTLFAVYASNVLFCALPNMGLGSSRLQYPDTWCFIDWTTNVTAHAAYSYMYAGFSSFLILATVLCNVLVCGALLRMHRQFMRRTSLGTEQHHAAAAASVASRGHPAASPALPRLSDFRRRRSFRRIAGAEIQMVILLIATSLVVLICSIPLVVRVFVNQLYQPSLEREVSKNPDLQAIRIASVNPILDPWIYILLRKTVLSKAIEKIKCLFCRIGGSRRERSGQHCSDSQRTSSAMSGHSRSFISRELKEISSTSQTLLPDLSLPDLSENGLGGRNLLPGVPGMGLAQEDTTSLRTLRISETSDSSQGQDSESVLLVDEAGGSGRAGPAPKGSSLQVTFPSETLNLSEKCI

Compound | IC50 [1] | Selectivity hEP2/hDP [2] | Selectivity hEP2/hEP4 [3]
COCCNC(=O)c1ccc2nn(CC3CCN(C(=O)c4ccc(-n5ccnc5)cc4)CC3)cc2c1C [Example 34, 2-({1-[4-(1H-imidazol-1-yl)-benzoyl]piperidin-4-yl}methyl)-N-(2-methoxyethyl)-4-methyl-2H-indazol-5-carboxamide] | 134 nM | xxx (xxx > 100) | xxx (xxx > 100)
Cc1c(C(=O)NCC(C)OC2CCC2)ccc2nn(CC3CN(C(=O)c4ccc(Cl)cc4)C3)cc12 (racemic) [Example 154, (+/−)-2-{[1-(4-chlorobenzoyl)azetidin-3-yl]methyl}-N-[2-(cyclobutyloxy)propyl]-4-methyl-2H-indazol-5-carboxamide] | 80.8 nM | xxx (xxx > 100) | xxx (xxx > 100)
COCCNC(=O)c1ccc2nn(CC3CCN(C(=O)c4ccc(-c5ccc(OC)cc5F)cc4F)CC3)cc2c1C [Example 364, 2-({1-[(2′,3-difluoro-4′-methoxybiphenyl-4-yl)carbonyl]piperidin-4-yl}methyl)-N-(2-methoxyethyl)-4-methyl-2H-indazol-5-carboxamide] | 6.61 nM | xxx (xxx > 100) | xxx (xxx > 100)
COCCNC(=O)c1ccc2nn(CC3CCN(C(=O)c4ccc(OC)cc4F)CC3)cc2c1C [Example 7, 2-{[1-(2-fluoro-4-methoxybenzoyl)piperidin-4-yl]methyl}-N-(2-methoxyethyl)-4-methyl-2H-indazol-5-carboxamide] | 25.8 nM | xxx (xxx > 100) | xxx (xxx > 100)
Cc1c(C(=O)NCCOCC2CC2)ccc2nn(CC3CCN(C(=O)c4ccc(C5CC5)cc4)CC3)cc12 [Example 89, 2-{[1-(4-cyclopropyl-benzoyl)piperidin-4-yl]methyl}-N-[2-(cyclopropylmethoxy)ethyl]-4-methyl-2H-indazol-5-carboxamide] | 9.4 nM | xxx (xxx > 100) | xxx (xxx > 100)
CCOc1c(C(=O)NCCOC)ccc2nn(CC3CCN(C(=O)c4ccc(S(F)(F)(F)(F)F)cc4)CC3)cc12 [Example 275, 4-ethoxy-N-(2-methoxyethyl)-2-({1-[4-(pentafluoro-λ^6-sulphanyl)benzoyl]-piperidin-4-yl}methyl)-2H-indazol-5-carboxamide] | 34.5 nM | xxx (xxx > 100) | xxx (xxx > 100)
COCCNC(=O)c1ccc2nn(CC3CCN(C(=O)c4ccc(C)cc4)CC3)cc2c1C [Example 12, N-(2-methoxyethyl)-4-methyl-2-{[1-(4-methylbenzoyl)-piperidin-4-yl]-methyl)-2H-indazol-5-carboxamide] | 20.3 nM | xxx (xxx > 100) | xxx (xxx > 100)
Cc1c(C(=O)NCC2COCCO2)ccc2nn(CC3CN(C(=O)c4ccc(Cl)cc4)C3)cc12 (single isomer, unassigned) [Example 143, (S or R)-2-{[1-(4-chlorobenzoyl)azetidin-3-yl]methyl}-N-(1,4-dioxan-2-ylmethyl)-4-methyl-2H-indazol-5-carboxamide] | 36.8 nM | xxx (xxx > 100) | xxx (xxx > 100)
COCCNC(=O)c1ccc2nn(CC3CCN(C(=O)c4ccc(C(F)(F)F)cc4)CC3)cc2c1C [Example 23, N-(2-methoxyethyl)-4-methyl-2-({1-[4-(trifluoromethyl)-benzoyl]piperidin-4-yl}methyl)-2H-indazol-5-carboxamide] | 16.1 nM | xxx (xxx > 100) | xxx (xxx > 100)
COCCNC(=O)c1ccc2nn(CC3CCN(C(=O)c4nc5ccccc5s4)CC3)cc2c1C [Example 348, 2-{[1-(benzothiazol-2-ylcarbonyl)piperidin-4-yl]methyl}-N-(2-methoxyethyl)-4-methyl-2H-indazol-5-carboxamide] | 8.88 nM | xxx (xxx > 100) | xxx (xxx > 100)
COCCNC(=O)c1ccc2nn(CC3CCN(C(=O)c4ccc(Oc5ccc(F)c(F)c5)cc4)CC3)cc2c1C [Example 359, 2-({1-[4-(3,4-difluorophenoxy)benzoyl]piperidin-4-yl}methyl)-N-(2-methoxy-ethyl)-4-methyl-2H-indazol-5-carboxamide] | 6.99 nM | xxx (xxx > 100) | xxx (xxx > 100)
Cc1c(C(=O)NCC(F)(F)F)ccc2nn(CC3CCN(C(=O)c4ccc(-c5ccc(F)cc5)cc4)CC3)cc12 [Example 286, 2-({1-[(4′-fluorobiphenyl-4-yl)carbonyl]piperidin-4-yl}methyl)-4-methyl-N-(2,2,2-trifluoroethyl)-2H-indazol-5-carboxamide] | 100 nM | xxx (xxx > 100) | xxx (xxx > 100)
COCCNC(=O)c1ccc2nn(CC3CCN(C(=O)c4ccc(-c5ccccc5)c(F)c4)CC3)cc2c1C [Example 49, 2-({1-[(2-fluoro-biphenyl-4-yl)-carbonyl]piperidin-4-yl}methyl)-N-(2-methoxyethyl)-4-methyl-2H-indazol-5-carboxamide] | 6.44 nM | xxx (xxx > 100) | xxx (xxx > 100)
COCCNC(=O)c1ccc2nn(CC3CCN(C(=O)c4ccc(Cl)cc4)CC3)cc2c1OC [Example 262, 2-{[1-(4-chlorobenzoyl)piperidin-4-yl]methyl}-4-methoxy-N-(2-methoxyethyl)-2H-indazol-5-carboxamide] | 33.4 nM | xxx (xxx > 100) | xxx (xxx > 100)
Cc1cc2nn(CC3CCN(C(=O)c4cccc(OC(F)(F)F)c4)CC3)cc2cc1C(=O)NCCN1CCOCC1 [Example 76, 6-methyl-N-(2-morpholinoethyl)-2-({1-[3-(trifluorometh-oxy)benzoyl]piperidin-4-yl}methyl)-2H-indazol-5-carboxamide] | 179 nM | xx (xx: 10-100) | xx (xx: 10-100)
Cc1c(C(=O)NCCN2CCOCC2)ccc2nn(CC3CCN(C(=O)c4cccc(S(F)(F)(F)(F)F)c4)CC3)cc12 [Example 64] | 4130 nM | x (x: 1-10) | x (x: 1-10)
Cc1c(C(=O)NCC(F)(F)F)ccc2nn(CC3CCN(C(=O)c4ncc(-c5ccccc5)o4)CC3)cc12 [Example 309, 4-methyl-2-({1-[(5-phenyloxazol-2-yl)carbonyl]piperidin-4-yl}methyl)-N-(2,2,2-trifluoroethyl)-2H-indazol-5-carboxamide] | 66 nM | xxx (xxx > 100) | xxx (xxx > 100)
